Assay in all cases: growth of human tumour cells (NCI), 48 h
Experiment [1] has as its system 786-0 renal.
Experiment [2] relates to A549 NSCLC.
Experiment [3] concerns COLO 205 colon.
The test system of experiment [4] is HCC-2998 colon.
The subject of experiment [5] is HCT-116 colon.
Experiment [6] has as its system IGROV1 ovarian.
Experiment [7] concerns NCI-H460 lung.
In experiment [8] the test system is OVCAR-4 ovarian.
For experiment [9], the system named is OVCAR-5 ovarian.
For experiment [10], the system named is SK-MEL-28 melanoma.

Structures are written as SMILES.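 Cultured in 96-well plates, cells were exposed to test compound for 48 hours across five concentrations. GI50 = concentration required for 50% inhibition of growth. TGI is the concentration that stops growth completely.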 Some results are limits rather than exact numbers.

In the case of `O=c1c2ccccc2oc2ccc(OCCCCCCN3CCCCCC3)cc12`, the GI50 in experiment [1] was 1.9 µM; in experiment [2] it was 3.51 µM; in experiment [3], 1.93 µM; in experiment [4], 2.97 µM; in experiment [5], 2.13 µM; in experiment [6], 4.29 µM. Also, the GI50 in experiment [7] is 3.46 µM; in experiment [8], 3.03 µM; in [9], 3.24 µM; in experiment [10], 2.01 µM. The TGI turned out to be 4.35 µM in [1]; 11.5 µM in experiment [2]; 4.05 µM in experiment [3]; 11.6 µM in [4]; 5.16 µM in experiment [5]; 17.5 µM in [6]. For the same compound, the TGI stood at 11.3 µM in experiment [7], 16.7 µM in experiment [8], 13.5 µM in experiment [9] and 4.58 µM in experiment [10].

As for `CCOc1ccc(C(CN2CCOCC2)C(C)=O)cc1OC` (stereo not given), the TGI was 15.7 µM in [1]; 51.7 µM in experiment [2]; 19.6 µM in experiment [3]; 32.3 µM in experiment [4]; 43.5 µM in [5]; 49.6 µM in [6]. The TGI worked out at 32.5 µM in experiment [7], 33.3 µM in [8], 33.2 µM in experiment [9] and 35.8 µM in experiment [10].

Regarding `CN(C=O)/C=C/c1cc(O)ccc1O`, the TGI in experiment [1] is 33.7 µM; in experiment [2] it was greater than 100 µM; in experiment [3] it was 45.4 µM; in [4], greater than 100 µM; in [5] it was 48.9 µM; in experiment [6] it was greater than 71.4 µM. Further, the TGI in [7] is greater than 74.7 µM; in experiment [8] it was 33.6 µM; in [9], 63.9 µM; in [10], greater than 58.3 µM.

Regarding `CCCCCCCCCCCCCCCCOC(=O)c1cc(O)cc(C(=O)OCCCCCCCCCCCCCCCC)c1`, the TGI in experiment [1], in experiment [2], in [3], in [4], in experiment [5] and in experiment [6] was greater than 100 µM each time. Moreover, the TGI in [7], in experiment [8], in [9] and in experiment [10] was greater than 100 µM in each case.

With `S=c1nc(-c2ccnc(-c3nc(=S)[nH][nH]3)c2)[nH][nH]1`, the TGI in [1], in experiment [2], in experiment [3], in experiment [4], in [5] and in [6] was greater than 100 µM in each case. For the same compound, the TGI in [7], in experiment [8], in [9] and in experiment [10] was greater than 100 µM throughout.

With `COc1ccc(CCc2cc(OC)c(OC)c(OC)c2)cc1`, the TGI in experiment [1] was 69.1 µM; in experiment [2], 88.8 µM; in experiment [3] it was 0.189 µM; in [4], 2.82 µM; in [5], 9.41 µM; in experiment [6] it was greater than 100 µM. The TGI in experiment [7] was 9.82 µM; in experiment [8], greater than 92.5 µM; in experiment [9], greater than 100 µM; in experiment [10], greater than 61.3 µM.

Regarding `C[N+](C)(C)CC1CCCC(C[N+](C)(C)C)C1O` (stereo not given), the TGI in [1], in experiment [2], in [3], in experiment [4], in [5] and in [6] was greater than 100 µM each time. In addition, the TGI in [7], in experiment [8], in experiment [9] and in [10] was greater than 100 µM in each case.

As to `CN1CCN(c2nc(-c3ccncc3)nc3sc4c(c23)CCCCCC4)CC1`, the GI50 in experiment [1] was 4.77 µM; in experiment [2] it was 11.4 µM; in [3], 4.94 µM; in experiment [4] it was 3.91 µM; in experiment [5], 5.13 µM; in [6], 8.16 µM. In addition, the GI50 in [7] was 13.5 µM; in experiment [8], 12.7 µM; in experiment [9], 10.8 µM; in experiment [10] it was 12.5 µM. Moreover, the TGI in experiment [1] worked out at 20.2 µM; in experiment [2], 25.3 µM; in [3], 17.2 µM; in [4], 13.2 µM; in [5] it was 17.7 µM; in experiment [6], 22 µM. Also, the TGI in [7] came to 29 µM; in [8], 28 µM; in [9], 22.9 µM; in experiment [10], 25.1 µM.

Take `CCOP(=O)(Nc1ccc2oc(=O)c3ccccc3c2c1)OCC`: the TGI in [1], in [2], in experiment [3], in [4], in experiment [5] and in experiment [6] was greater than 100 µM each time. Moreover, the TGI in experiment [7], in experiment [8], in experiment [9] and in [10] was greater than 100 µM in each case.

Consider `COc1cccc(NC(=O)C(=O)C(C(C)=O)c2nc3ccc(Cl)cc3[nH]c2=O)c1` (stereo not given), for which the TGI in experiment [1], in [2], in experiment [3], in experiment [4], in experiment [5] and in [6] was greater than 100 µM each time. For the same compound, the TGI in [7], in [8], in experiment [9] and in [10] was greater than 100 µM each time.

With `N=C1C=C(N)C(=O)c2[nH]c(=O)ccc21`, the TGI was found to be 3.48 µM in experiment [1]; 4.99 µM in experiment [2]; 3.14 µM in experiment [3]; 35.8 µM in experiment [4]; 2.48 µM in experiment [5]; 3.39 µM in experiment [6]. The TGI in [7] came to 6.95 µM; in experiment [8], 2.74 µM; in experiment [9], 4.78 µM; in experiment [10] it was 36.8 µM.

In the case of `COc1cc(/C=C(\C#N)C(N)=C(C#N)C#N)cc(O)c1O`, the TGI in [1], in experiment [2], in [3], in experiment [4], in experiment [5] and in [6] was greater than 100 µM each time. The TGI in experiment [7], in experiment [8], in [9] and in experiment [10] was greater than 100 µM in each case.

Regarding `O=C(Nc1ccccc1C(=O)N/N=C(\c1ccccc1)c1ccccn1)c1ccc(F)cc1`, the GI50 in experiment [1] is 0.281 µM; in experiment [2], 0.451 µM; in experiment [3], 0.215 µM; in [4], 0.321 µM; in experiment [5] it was 0.266 µM; in [6], 0.198 µM. Moreover, the GI50 in experiment [7] was 0.105 µM; in experiment [8], 0.207 µM; in experiment [9] it was 0.671 µM; in [10], 0.536 µM. For the same compound, the TGI in experiment [1] was 8.44 µM; in experiment [2], greater than 100 µM; in experiment [3], greater than 100 µM; in experiment [4], greater than 100 µM; in [5], greater than 100 µM; in [6] it was greater than 100 µM. In addition, the TGI in experiment [7] was 4.19 µM; in experiment [8], greater than 100 µM; in experiment [9] it was greater than 100 µM; in experiment [10], greater than 100 µM.

For the compound `O=C(Nc1cccc(NC(=O)c2cc(=O)c3ccccc3o2)n1)c1cc(=O)c2ccccc2o1`, the TGI in [1], in [2], in experiment [3], in [4], in [5] and in experiment [6] was greater than 100 µM each time. In addition, the TGI in [7], in [8], in [9] and in experiment [10] was greater than 100 µM throughout.

With `CC(=O)Oc1ccc(/C=N/NC(N)=S)nc1`, the GI50 in [1] was 3.53 µM; in experiment [2], 29.5 µM; in [3], 31 µM; in experiment [4], 8.96 µM; in experiment [5], 4.48 µM; in experiment [6], 4.5 µM. Further, the GI50 in experiment [7] was 9.36 µM; in [8] it was 6.03 µM; in [9] it was 69 µM; in experiment [10] it was 25.5 µM. The TGI was 16.1 µM in experiment [1]; greater than 100 µM in experiment [2]; greater than 100 µM in [3]; greater than 100 µM in [4]; greater than 100 µM in [5]; 26.8 µM in experiment [6]. For the same compound, the TGI in [7], in [8], in [9] and in [10] was greater than 100 µM throughout.

In the case of `Cc1cc(Cl)ccc1Nc1nc(C(F)(F)F)ccc1C(=O)N1CCN(c2cccc(Cl)c2)CC1`, the GI50 in experiment [1] was greater than 100 µM; in experiment [2] it was greater than 100 µM; in experiment [3], greater than 100 µM; in experiment [4] it was 49.3 µM; in experiment [5], 37.3 µM; in experiment [6], 1.78 µM. For the same compound, the GI50 in [7] was greater than 100 µM; in [8], 30 µM; in experiment [9], greater than 100 µM; in experiment [10] it was greater than 100 µM. The TGI in [1], in [2], in experiment [3], in experiment [4], in [5] and in experiment [6] was greater than 100 µM each time. For the same compound, the TGI in experiment [7], in experiment [8], in [9] and in experiment [10] was greater than 100 µM in each case.

Regarding `Oc1ccc(Cl)cc1Cc1cc(Cl)ccc1O`, the GI50 in experiment [1] was 3.85 µM; in [2] it was 2.95 µM; in experiment [3], 13.7 µM; in experiment [4], 2.36 µM; in [5], 2.6 µM; in [6], 3.34 µM. Moreover, the GI50 is 3 µM in experiment [7], 2.84 µM in [8], 4.79 µM in [9] and 3.52 µM in [10]. The TGI was found to be 14.3 µM in experiment [1]; 11.1 µM in [2]; 26.8 µM in [3]; 5.78 µM in [4]; 7.08 µM in [5]; 12.5 µM in [6]. Besides, the TGI stood at 10.7 µM in experiment [7], 11.9 µM in [8], 19.6 µM in experiment [9] and 12.6 µM in [10].

In the case of `CCOC(=O)[C@H]1Nc2ccccc2C2c3ccccc3CC21` (stereo not given in full), the TGI in experiment [1], in experiment [2], in [3], in experiment [4], in [5] and in [6] was greater than 100 µM in each case. The TGI in [7], in [8], in [9] and in [10] was greater than 100 µM in each case.

Turning to `COc1cnc2cc(C(=O)O)c3ccccc3c2c1`, the TGI in experiment [1], in experiment [2], in experiment [3], in experiment [4], in experiment [5] and in experiment [6] was greater than 100 µM in each case. The TGI in [7], in experiment [8], in experiment [9] and in experiment [10] was greater than 100 µM in each case.

For `O=S(=O)(c1ccc(O)c(C=Nc2ccc(Cl)cc2)c1)c1ccc(O)c(C=Nc2ccc(Cl)cc2)c1`, the TGI in experiment [1], in experiment [2], in [3], in [4], in [5] and in experiment [6] was greater than 100 µM each time. For the same compound, the TGI in experiment [7], in [8], in [9] and in [10] was greater than 100 µM throughout.

The values are drawn from PubChem BioAssay (NCI).
